Laboratory results taken from PMC4955774 (Bioorganic & medicinal chemistry, 2016).
Converted amounts (≈) assume the structure as drawn. Marks after values point to notes of the source that are not given here.

Tests used:
[1] = test system: C. albicans ATCC 64124 (strain B); assay: Antifungal time-kill studies; assay type: cell-based, Candida albicans
[2] = test system: 13 fungal strains (yeast and filamentous fungi); assay: In vitro antifungal MIC assay, summary over the whole panel; assay type: cell-based, Candida and Aspergillus strains; conditions: summary statement over the 13 strains
[3] = test system: C. albicans ATCC 10231; assay: In vitro antifungal MIC assay, strain A; assay type: cell-based; conditions: Candida albicans, ATCC10231, read-out: MIC (MIC-0)
[4] = test system: C. albicans ATCC MYA-2876(S); assay: In vitro antifungal MIC assay, strain C; assay type: cell-based; conditions: Candida albicans, read-out: MIC (MIC-0)
[5] = test system: C. albicans ATCC MYA-2310(S); assay: In vitro antifungal MIC assay, strain E; assay type: cell-based; conditions: Candida albicans, read-out: MIC (MIC-0)
[6] = test system: C. albicans ATCC MYA-1237(R); assay: In vitro antifungal MIC assay, strain F; assay type: cell-based; conditions: Candida albicans, read-out: MIC (MIC-0)
[7] = test system: C. albicans ATCC MYA-1003(R); assay: In vitro antifungal MIC assay, strain G; assay type: cell-based; conditions: Candida albicans, read-out: MIC (MIC-0)
[8] = In vitro cytotoxicity assay, A549; assay type: cell-based, mammalian; conditions: human
[9] = In vitro cytotoxicity assay, BEAS-2B; assay type: cell-based, mammalian; conditions: human
[10] = test system: C. albicans ATCC 10231 (strain A); assay: ROS assay with DCFH-DA dye; assay type: cell-based, Candida albicans; conditions: 1 h at 35 °C
[11] = test system: C. albicans ATCC 10231; conditions: strain A; MIC-2 for azoles; previously reported; cited from earlier work
[12] = test system: C. albicans ATCC 64124; conditions: strain B; MIC-2 for azoles; previously reported; cited from earlier work
[13] = test system: C. albicans ATCC MYA-2876(S); conditions: strain C; MIC-2 for azoles; previously reported; cited from earlier work
[14] = test system: C. albicans ATCC 90819(R); conditions: strain D; MIC-2 for azoles; previously reported; cited from earlier work
[15] = test system: C. albicans ATCC MYA-2310(S); conditions: strain E; MIC-2 for azoles; previously reported; cited from earlier work
[16] = test system: C. albicans ATCC MYA-1237(R); conditions: strain F; MIC-2 for azoles; previously reported; cited from earlier work
[17] = test system: C. albicans ATCC MYA-1003(R); conditions: strain G; MIC-2 for azoles; previously reported; cited from earlier work
[18] = test system: Aspergillus nidulans ATCC 38163; conditions: strain L, filamentous fungus, previously reported; cited from earlier work
[19] = 1× and 2× respective MIC values

With `C[C@@H]1[C@H](O)[C@@H](C)/C=C/C=C/C=C/C=C/C=C/C=C/C=C/[C@H](O[C@@H]2O[C@H](C)[C@@H](O)[C@H](N)[C@@H]2O)C[C@@H]2O[C@](O)(C[C@@H](O)C[C@@H](O)[C@H](O)CC[C@@H](O)C[C@@H](O)CC(=O)O[C@H]1C)C[C@H](O)[C@H]2C(=O)O` [AmB, amphotericin B] the “Nature of activity in time-kill assay” value ([1]; 1× MIC) was “fungicidal” and the “Time after which fungal cells were completely killed” value ([1]; 1× MIC) was 9 h.

With `C#CCOc1ccc(-c2nc3ccc(N4CCN(C)CC4)cc3[nH]2)cc1` [Compound 1] the “MIC / antifungal activity over all tested fungal strains” value [2] was ≥ 31.2 µg/mL.

`CN1CCN(c2ccc3[nH]c(-c4ccc5[nH]c(-c6ccc(O)cc6)nc5c4)nc3c2)CC1` [Compound 2] showed an MIC [3] of 7.8 to 15.6 µg/mL (≈ 18.4 to 36.7 µM), an MIC [4] of 7.8 to 15.6 µg/mL (≈ 18.4 to 36.7 µM) and an MIC [5] of 3.9 to 7.8 µg/mL (≈ 9.19 to 18.4 µM). For the same compound, the MIC [6] was 3.9 to 7.8 µg/mL (≈ 9.19 to 18.4 µM), the MIC [7] was 7.8 to 15.6 µg/mL (≈ 18.4 to 36.7 µM) and the “Nature of activity in time-kill assay” value ([1]; 1× MIC) was “fungistatic”. The “Nature of activity in time-kill assay” value ([1]; 2× MIC) was “fungicidal”, the IC50 at 24 h [8] was ≥ 31.2 µg/mL and the IC50 at 24 h [9] was ≥ 31.2 µg/mL. The “Intracellular ROS production” value [10, 19] was “significant amount of ROS production”.

For `CCCCCCCCCCCCN1CCN(c2ccc3nc(-c4ccc5nc(-c6ccc(O)cc6)[nH]c5c4)[nH]c3c2)CC1` [Compound 4], the “MIC / antifungal activity over all tested fungal strains” value [2] was “no activity” and the “Intracellular ROS production” value ([10]; 8 and 16 µg/mL) was “no ROS accumulation”.

In the case of `CCOc1ccc(-c2nc3cc(-c4nc5cc(N6CCN(C)CC6)ccc5[nH]4)ccc3[nH]2)cc1` [Compound 9], the “Nature of activity in time-kill assay” value ([1]; 1× MIC) is reported as “fungistatic”, the “Nature of activity in time-kill assay” value ([1]; 2× MIC) is reported as “fungicidal” and the “Intracellular ROS production” value [10, 19] is reported as “significant amount of ROS production”.

In the case of `CCCN1CCN(c2ccc3nc(-c4ccc5nc(-c6ccc(OCC)cc6)[nH]c5c4)[nH]c3c2)CC1` [Compound 11], the “MIC / antifungal activity over all tested fungal strains” value [2] is reported as “inactive”.

With `CCCCCN1CCN(c2ccc3nc(-c4ccc5nc(-c6ccc(OCC)cc6)[nH]c5c4)[nH]c3c2)CC1` [Compound 12] the “MIC / antifungal activity over all tested fungal strains” value [2] was “inactive”.

For `CCCCCCCCCCCCOc1ccc(-c2nc3ccc(-c4nc5ccc(N6CCN(C)CC6)cc5[nH]4)cc3[nH]2)cc1` [Compound 13], the “MIC / antifungal activity over all tested fungal strains” value [2] was “complete loss of antifungal activity”.

Compound `C#CCOc1ccc(-c2nc3ccc(-c4nc5ccc(N6CCN(C)CC6)cc5[nH]4)cc3[nH]2)cc1` [Compound 14] has an MIC [3] of 7.8 to 31.2 µg/mL (≈ 16.9 to 67.5 µM).

With `C#CCOc1ccc(-c2nc3ccc(-c4nc5ccc(-c6nc7ccc(N8CCN(C)CC8)cc7[nH]6)cc5[nH]4)cc3[nH]2)cc1` [Compound 18] the “MIC / antifungal activity over all tested fungal strains” value [2] was ≥ 31.2 µg/mL.

For `OC(Cn1cncn1)(Cn1cncn1)c1ccc(F)cc1F` [FLC, fluconazole], the “MIC (MIC-2)” value [11] is listed as 62.5 ^a µg/mL, the “MIC (MIC-2)” value [12] is listed as >125 ^a µg/mL and the “MIC (MIC-2)” value [13] is listed as 15.6 ^a µg/mL. The “MIC (MIC-2)” value [14] was >125 ^a µg/mL, the “MIC (MIC-2)” value [15] was >125 ^a µg/mL and the “MIC (MIC-2)” value [16] was 62.5 ^a µg/mL. For the same compound, the “MIC (MIC-2)” value [17] was 62.5 ^a µg/mL and the “MIC (MIC-0)” value [18] was 62.5 ^a µg/mL.

In the case of `CCC(C)n1ncn(-c2ccc(N3CCN(c4ccc(OCC5COC(Cn6cncn6)(c6ccc(Cl)cc6Cl)O5)cc4)CC3)cc2)c1=O` (centres unmarked) [ITC, itraconazole], the “MIC (MIC-2)” value [11] is listed as 0.5 ^a µg/mL, the “MIC (MIC-2)” value [12] is listed as >62.5 ^a µg/mL and the “MIC (MIC-2)” value [13] is listed as 7.8 ^a µg/mL. For the same compound, the “MIC (MIC-2)” value [14] was 31.2 ^a µg/mL, the “MIC (MIC-2)” value [15] was 31.2 ^a µg/mL and the “MIC (MIC-2)” value [16] was 31.2 ^a µg/mL. The “MIC (MIC-2)” value [17] was 31.2 ^a µg/mL and the “MIC (MIC-0)” value [18] was 0.195 ^a µg/mL.

For `CC[C@@H]([C@H](C)O)n1ncn(-c2ccc(N3CCN(c4ccc(OC[C@@H]5CO[C@@](Cn6cncn6)(c6ccc(F)cc6F)C5)cc4)CC3)cc2)c1=O` [POS, posaconazole], the “MIC (MIC-2)” value [11] is listed as 0.5 ^a µg/mL, the “MIC (MIC-2)” value [12] is listed as >62.5 ^a µg/mL and the “MIC (MIC-2)” value [13] is listed as 7.8 ^a µg/mL. The “MIC (MIC-2)” value [14] was 31.2 ^a µg/mL, the “MIC (MIC-2)” value [15] was 31.2 ^a µg/mL and the “MIC (MIC-2)” value [16] was 15.6 ^a µg/mL. For the same compound, the “MIC (MIC-2)” value [17] was 15.6 ^a µg/mL and the “MIC (MIC-0)” value [18] was 0.195 ^a µg/mL.
